Among the data in patent US9340577B2, “HLA binding motifs and peptides and their uses” (priority 1992, dated 2016) are IC50 values, retold here.

By IC50 is commonly meant the concentration needed to halve the response being measured.

Common to all, as to test: biochemical
The target of one experiment is DR1 (DRB1*0101) (Homo sapiens, UniProt P01903+P01911, A100R/D57E/F55L/F60I/F76Y/I96L/L162R/M171V/P40L/Q125E/R42F/V115G/Y59C). Type of experiment: binding.
A further experiment addresses DR4w4 (DRB1*0401) (Homo sapiens, UniProt P01903+P01911, A100K/A169T/F76Y/I96L/K127E/L162R/M171V/N62H/P40V/Q125Y/R42H/S133A/S149N/S66Y/V115G/V209L/W38E). Type of experiment: binding.
For another experiment, the target named is DR7 (DRB1*0701) (Homo sapiens, UniProt P01903+P01911, A100R/A102G/A103Q/D57E/D86V/E43K/F76Y/K127E/L162R/M171V/P40G/Q125H/Q99D/R33Q/R42Y/R54Q/S133A/S66F/T210M/V115G/Y107V/Y59L/Y89S). The experiment is classed as binding.
The target in the next experiment is DRB1*0301 (Homo sapiens, UniProt P01903+P01911, A100K/A102G/A103R/A169T/F55Y/I96L/K41T/L162R/M171V/P40S/Q125H/Q178H/Q39Y/R42S/S66N/T106N/T262R/W38E/Y61H). The experiment is classed as binding.
DRB1*0301, sequence (P01903 26-254 limits assumed, other chains not shown): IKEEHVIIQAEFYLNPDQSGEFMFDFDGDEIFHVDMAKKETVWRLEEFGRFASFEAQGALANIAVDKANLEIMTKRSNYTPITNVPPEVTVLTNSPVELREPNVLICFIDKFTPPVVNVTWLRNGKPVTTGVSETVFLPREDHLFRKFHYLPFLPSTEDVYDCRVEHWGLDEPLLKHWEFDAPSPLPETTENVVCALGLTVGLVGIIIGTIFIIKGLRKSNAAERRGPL
Another experiment concerns the target DRB1*0405 (Homo sapiens, UniProt P01903+P01911, A100R/A169T/D86S/F76Y/I96L/K127E/L162R/M171V/N62H/P40V/Q125Y/R42H/S133A/S149N/S66Y/V115G/V209L/W38E). The experiment is classed as binding.
Another experiment concerns the target DRB1*0802 (Homo sapiens, UniProt P01903+P01911, A100R/A103L/A169T/F76Y/H45Y/I96F/K41T/L162R/M171V/P40S/Q125H/Q178H/Q39Y/Q99D/R218S/R42G/S66Y/V115G/W38E). Type of experiment: binding.
The target in another experiment is DRB1*0901 (Homo sapiens, UniProt P01903+P01911, A100R/A103E/D57H/D86V/F55Y/F60I/F76Y/I96F/K127E/L162R/M171V/P40D/Q125H/Q99R/R33Q/R42F/S133A/S66N/T210M/V115G/W38K/Y107V/Y59G/Y89S). The experiment is classed as binding.
Another experiment concerns the target DRB1*1201 (Homo sapiens, UniProt P01903+P01911, A100R/A169T/D57E/D86V/F55L/H45Y/K41T/L162R/M171V/P40S/Q125H/Q178H/Q39Y/Q99D/R42G/S66L/T262R/V114A/V67L/W38E/Y59H/Y61H/Y89S). Type of experiment: binding.
For the next experiment, the target named is DRB1*1302 (Homo sapiens, UniProt P01903+P01911, A100E/A169T/K41T/L162R/M171V/P40S/Q125H/Q178H/Q39Y/Q99D/R42S/S66N/T262R/V115G/W38E/Y61H). Type of experiment: binding.
DRB1*1302, sequence (P01903 26-254 limits assumed, other chains not shown): as above
The target of a further experiment is DRB1*1501 (Homo sapiens, UniProt P01903+P01911). The experiment is classed as binding.
For the next experiment, the target named is DRB3*0101 (Homo sapiens, UniProt P01903+P79483). Type of experiment: binding.
The target in the next experiment is DRB1*1101 (Homo sapiens, UniProt P01903+P01911, A100R/A169T/A87E/I96F/K41T/L162R/M171V/P40S/Q125H/Q178H/Q39Y/Q99D/R42S/S66Y/T262R/V115G/W38E). The conditions noted are these: Binding affinity DRB1 *1101.
DRB1*1101, sequence (P01903 26-254 limits assumed, other chains not shown): as above
A further experiment addresses DRB5*0101 (Homo sapiens, UniProt P01903+Q30154). Conditions: Binding affinity DRB5 *0101.
In the next experiment the target is DRB4*0101 (Homo sapiens, UniProt P01903+P13762, G164S). Type of experiment: binding.

No end group written: not given here.

Take `CC(C)C[C@H](NC(=O)[C@H](CC(=O)O)NC(=O)[C@@H](NC(=O)[C@@H](NC(=O)[C@H](CCC(=O)O)NC(=O)[C@@H]1CCCN1C(=O)[C@H](CCC(N)=O)NC(=O)[C@H](CC(C)C)NC(=O)[C@H](CC(=O)O)NC(=O)[C@@H](N)CC(C)C)[C@@H](C)O)[C@@H](C)O)C(=O)N[C@@H](Cc1ccc(O)cc1)C(=O)N[C@@H](CS)C(=O)N[C@@H](Cc1ccc(O)cc1)C(=O)N[C@@H](CCC(=O)O)C(=O)N[C@@H](CCC(N)=O)C(=O)O` [Peptide 1543.04]: the IC50 at DR1 (DRB1*0101) is above 20 µM; at DR4w4 (DRB1*0401), 1.9 µM; against DR7 (DRB1*0701) it was above 20 µM; on DRB1*0301, 0.59 µM; on DRB1*0405, above 20 µM; against DRB1*0802, above 20 µM. For the same molecule, the 50% inhibitory concentration (IC50) at DRB1*0901, at DRB1*1201, on DRB1*1302, against DRB1*1501, at DRB3*0101 and on DRB1*1101 was above 20 µM in each case. Further, the half-inhibitory concentration (IC50) on DRB5*0101 is above 20 µM.
For PDGQAEQATSNYYIV [Peptide 1543.43], the half-inhibitory concentration (IC50) against DR1 (DRB1*0101) was above 20 µM; against DR7 (DRB1*0701), 0.051 µM; on DRB1*0301, above 20 µM; against DRB1*0405 it was 5.12 µM; on DRB1*0802 it was above 20 µM; against DRB1*0901, 2.33 µM. The half-maximal inhibitory concentration (IC50) on DRB1*1201, on DRB1*1302, on DRB1*1501, against DRB3*0101, against DRB4*0101 and at DRB5*0101 was above 20 µM each time.
With RFHNIMGRWTGRCSE [Peptide 1543.60], the IC50 on DR1 (DRB1*0101) was determined as 0.0056 µM; on DR4w4 (DRB1*0401), 0.332 µM; against DRB1*0301 it was 5.48 µM; against DRB1*0405, 1.84 µM; against DRB1*0802 it was 0.027 µM; on DRB1*0901 it was 8.86 µM. Besides, the IC50 stood at 18.3 µM on DRB1*1201; 0.123 µM against DRB1*1501; 7.84 µM against DRB3*0101; 1.12 µM against DRB4*0101; 0.024 µM at DRB1*1101; 0.374 µM at DRB5*0101.
In the case of RREVYDFAFRDLCIV [Peptide 1543.25], the half-inhibitory concentration (IC50) on DR1 (DRB1*0101) is above 20 µM; at DR4w4 (DRB1*0401), 4.03 µM; on DR7 (DRB1*0701), 0.073 µM; against DRB1*0301, 11 µM; against DRB1*0802 it was 9.03 µM; on DRB1*0901 it was above 20 µM. Moreover, the IC50 is 11 µM against DRB1*1201; above 20 µM against DRB1*1302; above 20 µM against DRB1*1501; above 20 µM against DRB3*0101; 2.46 µM at DRB4*0101; above 20 µM on DRB1*1101. Further, the IC50 on DRB5*0101 amounted to 19.8 µM.
Turning to `CC[C@H](C)[C@H](NC(=O)[C@@H]1CCCN1)C(=O)N[C@@H](CC(C)C)C(=O)N[C@@H](CC(C)C)C(=O)N[C@@H](Cc1c[nH]c2ccccc12)C(=O)N[C@@H](CCC(N)=O)C(=O)N1CCC[C@H]1C(=O)N[C@H](C(=O)N1CCC[C@H]1C(=O)N[C@H](C(=O)N[C@@H](Cc1c[nH]cn1)C(=O)N[C@H](C(=O)N[C@H](C(=O)N1CCC[C@H]1C(=O)N[C@@H](CC(C)C)C(=O)O)C(C)C)[C@@H](C)O)C(C)C)[C@@H](C)CC` [Peptide 68.0037], the 50% inhibitory concentration (IC50) against DRB1*0301 was above 20 µM; on DRB1*0802, above 20 µM; against DRB1*1201, 2.37 µM; at DRB3*0101, above 20 µM; on DRB5*0101 it was above 20 µM.
As for `CC[C@H](C)[C@H](NC(=O)[C@H](CC(=O)O)NC(=O)[C@H](Cc1c[nH]cn1)NC(=O)[C@@H](NC(=O)[C@@H](NC(=O)[C@@H](NC(=O)[C@H](CCC(N)=O)NC(=O)[C@H](CC(C)C)NC(=O)[C@H](CCC(=O)O)NC(=O)[C@@H](NC(=O)[C@H](CS)NC(=O)[C@@H](N)CC(C)C)[C@@H](C)O)[C@@H](C)O)[C@@H](C)O)[C@@H](C)CC)C(=O)N[C@H](C(=O)N[C@@H](CC(C)C)C(=O)N[C@@H](CCC(=O)O)C(=O)O)[C@@H](C)CC` [Peptide 1543.24], the IC50 is 0.08 µM against DRB1*0301; above 20 µM at DRB1*0802; above 20 µM on DRB1*0901; above 20 µM against DRB1*1201; above 20 µM on DRB1*1501; above 20 µM at DRB3*0101. Besides, the IC50 on DRB1*1101 and at DRB5*0101 was above 20 µM throughout.
Take TRPRTLHELCEVLEE [Peptide 1543.42]: the IC50 at DR1 (DRB1*0101) was 18 µM; against DR7 (DRB1*0701), above 20 µM; at DRB1*0301, above 20 µM; against DRB1*0405 it was 0.674 µM; on DRB1*0802 it was above 20 µM; at DRB1*0901 it was above 20 µM. Also, the half-maximal inhibitory concentration (IC50) against DRB1*1201 is above 20 µM; on DRB1*1302, above 20 µM; against DRB1*1501 it was above 20 µM; at DRB3*0101, above 20 µM; against DRB4*0101, 2.59 µM; at DRB1*1101, above 20 µM. This molecule gave a 50% inhibitory concentration (IC50) on DRB5*0101 above 20 µM.
`CC[C@H](C)[C@H](NC(=O)CNC(=O)[C@H](Cc1ccc(O)cc1)NC(=O)[C@H](CC(C)C)NC(=O)[C@H](CO)NC(=O)[C@H](CC(C)C)NC(=O)[C@H](CC(C)C)NC(=O)[C@H](CO)NC(=O)[C@@H](N)CC(C)C)C(=O)N[C@@H](Cc1c[nH]cn1)C(=O)N[C@@H](CCCCN)C(=O)N[C@@H](CCC(N)=O)C(=O)N[C@@H](CCCCN)C(=O)N[C@@H](CCC(=O)O)C(=O)N[C@@H](CCCCN)C(=O)O` [Peptide 68.0045]: the 50% inhibitory concentration (IC50) against DR7 (DRB1*0701) is above 20 µM; at DRB1*0301, above 20 µM; at DRB1*1201, 0.647 µM; against DRB1*1302 it was above 20 µM; on DRB3*0101, above 20 µM.
For EYVLDLYPEPTDLYC [Peptide 1543.12], the IC50 on DR1 (DRB1*0101) was 9.08 µM; at DR7 (DRB1*0701) it was above 20 µM; at DRB1*0301, 0.76 µM; on DRB1*0405, 5.88 µM; against DRB1*0802, above 20 µM; against DRB1*0901 it was above 20 µM. For the same molecule, the half-inhibitory concentration (IC50) against DRB1*1201 was 2.21 µM; against DRB1*1302 it was above 20 µM; against DRB1*1501, 13 µM; on DRB3*0101, 0.734 µM; against DRB4*0101, 0.159 µM; on DRB1*1101, above 20 µM. This molecule showed a concentration for half-maximal inhibition (IC50) at DRB5*0101 above 20 µM.
Consider NGVLQGITSWGPEPC [Peptide 68.0017], for which the IC50 at DRB1*0301 was 8.43 µM; on DRB1*0802, above 20 µM; on DRB1*0901 it was above 20 µM; against DRB1*1201, above 20 µM; at DRB1*1302, above 20 µM; against DRB3*0101, above 20 µM. The IC50 on DRB1*1101 and on DRB5*0101 was above 20 µM each time.
Take LCVNSTASDLRTIQQ [Peptide 1543.15]: the half-maximal inhibitory concentration (IC50) turned out to be 1.58 µM at DR1 (DRB1*0101); 0.063 µM on DR4w4 (DRB1*0401); 0.723 µM on DR7 (DRB1*0701); 6.23 µM on DRB1*0301; 0.49 µM on DRB1*0405; 4.38 µM at DRB1*0802. Moreover, the half-inhibitory concentration (IC50) against DRB1*0901 is above 20 µM; against DRB1*1201 it was 1.59 µM; at DRB1*1501 it was above 20 µM; against DRB3*0101, above 20 µM; against DRB4*0101, 2.11 µM; at DRB5*0101, above 20 µM.
With `CSCC[C@H](NC(=O)[C@H](CC(=O)O)NC(=O)[C@H](Cc1ccc(O)cc1)NC(=O)[C@H](CC(C)C)NC(=O)[C@@H]1CCCN1C(=O)[C@H](Cc1c[nH]cn1)NC(=O)[C@@H]1CCCN1C(=O)[C@H](Cc1ccccc1)NC(=O)[C@H](CO)NC(=O)[C@H](Cc1c[nH]cn1)NC(=O)[C@H](CO)NC(=O)[C@@H](NC(=O)[C@H](CCC(N)=O)NC(=O)[C@H](Cc1ccccc1)NC(=O)[C@@H](N)C(C)C)C(C)C)C(=O)O` [Peptide 68.0070], the IC50 at DRB1*0301 is above 20 µM; against DRB1*1201, 2.48 µM; at DRB3*0101, above 20 µM; on DRB4*0101, above 20 µM.
